Test results as given in patent US20110200624A1, “NOVEL PEPTIDES FOR USE IN TRANSFECTION” (MOLECULAR TRANSFER, INC., priority 2008, published 2011).

Tests used:
Experiment in all cases: Transfection with β-galactosidase reporter plasmid pCMVSPORT-β-gal, β-gal activity (ONPG)
Format in all cases: cell-based
NIH 3T3 = NIH 3T3 cells; DMS lipid (1:1 DOPE), 1.0 μg plasmid DNA, 1.0 ug peptide; β-gal activity OD 405 nm
Method: (§1) Transfection of, NIH3T3, HepG2, Human Fibroblast, Jurkat and Cos-7 and with β-galactosidase reporter plasmid pCMV[…]SPORT-β-gal was carried out as follows:
(§2) Cells were plated in 96-well plates with 100 μl of media containing 10% fetal calf serum the day before transfection such that a desired confluency (70%-95%) was achieved the following day. The following day DMS lipid (1:1 DOPE) and DNA/peptide were mixed in Opti-MEM to form DNA/lipid/peptide complexes. Complexes were formed by adding various amounts of lipid (1-6 μl) to 100 μl of Opti-MEM. Plasmid DNA (1.0 μg) was added to 100 μl Opti-MEM then 1.0 ug of each peptide was added to the DNA mixture and incubated for 10 minutes. The DNA/peptide and lipids solutions were then mixed to form DNA/peptide/lipid complexes. The complexes were incubated for an additional 15 minutes. After incubation 20 μl of each of the resulting complexes was added directly to the cells in 10% serum. Cells were incubated for an additional 16-24 hours to allow expression of the plasmid. Medium was removed and the cells were lysed in 100-200 μl of lysis buffer. The lysates (20 μl) were assayed for β-gal activity using the enzymatic substrate ONPG. Total activity was determined by reading the OD at 405 nm using a Bio-Rad Benchmark Microplate Spectrophotometer.

Jurkat = Jurkat cells; DMS lipid (1:1 DOPE), 1.0 μg plasmid DNA, 1.0 ug peptide; β-gal activity OD 405 nm
Method: as §1, §2

HepG2 = HepG2 cells; DMS lipid (1:1 DOPE), 1.0 μg plasmid DNA, 1.0 ug peptide; β-gal activity OD 405 nm
Method: as §1, §2

Human Fibroblast = conditions: DMS lipid (1:1 DOPE), 1.0 μg plasmid DNA, 1.0 ug peptide, β-gal activity OD 405 nm
Method: as §1, §2

PC12 = PC12 cells; DMS lipid (1:1 DOPE), 1.0 μg plasmid DNA, 1.0 ug peptide; β-gal activity OD 405 nm

Substance	Fold Ehancement over Lipid Alone (NIH 3T3) [Fold]	Fold Ehancement over Lipid Alone (Jurkat) [Fold]	Fold Ehancement over Lipid Alone (HepG2) [Fold]	Fold Ehancement over Lipid Alone (Human Fibroblast) [Fold]	Fold Ehancement over Lipid Alone (PC12) [Fold]
(K)16YYCQQRSSYPYTFGG [Peptide #6]	1.93	1.75	4.2	34	1.13
(K)16YYCLQSMEDPYTFGG [Peptide #7]	1.46	1.47	3.3	29	0.91
(K)16AAWDDSLGI [Peptide #3]	1.5	4.5	1.9	12.9	2.88
(K)16YYCQQSYSTPWTFGQGTK [Peptide #10]	2.1	2	2.5	22.7	1.4
(K)16DYYCAAWDDSLNGYSVF [Peptide #5]	2.5	1.28	2	12	1.6
(K)16YYCARSDGNYGYYYALDYDY [Peptide #8]	1.86	1	1.6	19.9	0.37
(K)16AARSPSYYRYDYGPYYAMDYD [Peptide #9]	2.17	5.78	4.25	21.9	2.68
(K)16VELDSFDY [Peptide #4]	1.65	4.75	1.2	11.7	2.5
(K)16NSRDSSGIQNV [Peptide #2]	0.89	4.8	1.3	14.5	2.09
(K)16YYCDIRLRDP [Peptide #1]	1.7	4.56	0.97	3.7	1.8
